Consider twelve molecules from ChEMBL document CHEMBL1132457 (J Med Chem, 1999).

pIC50, pKi: −log10 of the molar value. Bounds are passed on as bounds.

For test [1], the target named is T1, Adenosine receptor A1 (Homo sapiens, UniProt P30542).
T1 sequence (P30542 whole entry): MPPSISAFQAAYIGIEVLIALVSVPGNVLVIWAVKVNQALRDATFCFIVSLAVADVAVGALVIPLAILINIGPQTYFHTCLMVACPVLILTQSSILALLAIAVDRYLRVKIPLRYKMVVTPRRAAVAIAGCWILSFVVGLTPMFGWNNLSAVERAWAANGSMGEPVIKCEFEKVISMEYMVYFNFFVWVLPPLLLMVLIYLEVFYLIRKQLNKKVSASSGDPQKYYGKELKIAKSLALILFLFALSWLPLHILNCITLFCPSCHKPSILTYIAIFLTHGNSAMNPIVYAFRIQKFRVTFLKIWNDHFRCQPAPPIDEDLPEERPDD
Kind of test: Displacement of [3H]DPCPX from human Adenosine A1 receptor expressed in CHO cells. The format is cell-based.

Test [2] has as its target T2, Adenosine receptor A2a (Homo sapiens, UniProt P29274). Kind of test: Displacement of specific [3H]-SCH- 58261 binding at human Adenosine A2A receptor expressed in HEK293 cells. The format is cell-based.
For test [3], the target named is T3, Adenosine receptor A3 (Homo sapiens) (UniProt P0DMS8).
T3 sequence (whole entry): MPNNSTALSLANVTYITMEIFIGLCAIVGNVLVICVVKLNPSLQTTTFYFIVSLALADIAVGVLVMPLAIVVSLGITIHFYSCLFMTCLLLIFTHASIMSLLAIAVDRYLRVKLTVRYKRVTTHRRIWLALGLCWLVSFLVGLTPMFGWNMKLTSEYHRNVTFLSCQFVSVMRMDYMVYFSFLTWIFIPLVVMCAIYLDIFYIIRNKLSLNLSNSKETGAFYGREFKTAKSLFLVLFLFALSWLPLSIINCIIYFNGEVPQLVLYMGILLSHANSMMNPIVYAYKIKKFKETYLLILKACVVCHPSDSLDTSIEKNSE
The test can be described thus: Percent inhibition of cAMP-accumulation in CHO cells by IB-MECA at 1 uM. The format is functional, cell-based.

The target of test [4] is T4, Adenosine receptor A3 (Rattus norvegicus) (UniProt P28647).
T4 sequence (whole entry): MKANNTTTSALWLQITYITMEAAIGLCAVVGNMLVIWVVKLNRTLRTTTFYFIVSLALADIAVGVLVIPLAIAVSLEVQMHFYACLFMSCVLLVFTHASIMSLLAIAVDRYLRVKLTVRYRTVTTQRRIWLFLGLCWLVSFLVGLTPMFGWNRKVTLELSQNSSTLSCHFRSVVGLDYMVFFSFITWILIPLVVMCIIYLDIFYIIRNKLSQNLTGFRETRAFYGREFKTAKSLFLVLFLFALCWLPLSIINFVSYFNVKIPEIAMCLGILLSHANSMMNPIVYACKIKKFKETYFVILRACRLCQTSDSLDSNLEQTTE
It counts as cell-based. The conditions noted are these: CHO, 10 mM.

The subject of test [5] is HEK293. The test can be described thus: Ratio of binding affinity for rat adenosine A2A of striatal membranes and human adenosine A3 receptors expressed in HEK293 cells. It counts as cell-based.
Test [6] deals with T3, Adenosine receptor A3 (Homo sapiens). The test can be described thus: Percent inhibition of cAMP-accumulation in CHO cells by IB-MECA at 1 uM. The format is functional, cell-based.
For test [7], the system named is HEK293. The test can be described thus: Ratio of binding affinity for rat adenosine A1 and human adenosine A3 receptors expressed in HEK293 cells. It counts as cell-based.
Test [8] addresses Adenosine receptors; A1 & A3 (Homo sapiens) (UniProt P30542+P0DMS8). Kind of test: Ratio of binding affinity for human adenosine A1 and A3 receptors expressed in HEK293 cells. The format is cell-based.
The target of test [9] is T3, Adenosine receptor A3 (Homo sapiens). The conditions noted are these: CHO, 1 uM.
Description: Percent inhibition of cAMP-accumulation in CHO cells expressing hA3 adenosine receptors by IB-MECA at 1 uM.
The target of test [10] is Adenosine receptor A2a (Rattus norvegicus, UniProt P30543).
Sequence of Adenosine receptor A2a (Rattus norvegicus, UniProt P30543) (P30543 whole entry): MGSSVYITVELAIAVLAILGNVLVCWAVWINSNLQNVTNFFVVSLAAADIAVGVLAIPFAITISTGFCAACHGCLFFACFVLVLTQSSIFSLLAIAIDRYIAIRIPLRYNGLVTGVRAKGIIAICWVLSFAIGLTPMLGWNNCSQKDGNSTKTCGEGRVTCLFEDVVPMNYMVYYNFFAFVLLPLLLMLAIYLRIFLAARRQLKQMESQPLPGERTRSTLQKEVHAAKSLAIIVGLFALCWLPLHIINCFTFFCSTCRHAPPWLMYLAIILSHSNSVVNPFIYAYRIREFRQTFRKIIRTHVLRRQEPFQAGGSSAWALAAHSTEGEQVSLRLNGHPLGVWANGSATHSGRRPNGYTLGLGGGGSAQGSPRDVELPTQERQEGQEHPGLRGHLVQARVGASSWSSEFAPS
Description: Displacement of [3H]-SCH- 58261 from Adenosine A2A receptor in rat striatal membranes
For test [11], the target named is T2, Adenosine receptor A2a. Kind of test: Displacement of [3H]-SCH- 58261 from human Adenosine A2A receptor expressed in HEK293 cells. It counts as cell-based.
The target in test [12] is T5, Adenosine receptor A3 (Homo sapiens, UniProt P0DMS8).
T5 sequence (P0DMS8 whole entry): T3 sequence (whole entry)
Kind of test: Inhibitory concentration as antagonistic activity against cAMP generation inhibited by IB-MECA in CHO cell membranes transfected with human A3 receptor. The format is functional, cell-based.

The target in test [13] is T5, Adenosine receptor A3. The test can be described thus: Inhibitory concentration as antagonistic activity against cAMP generation inhibited by IB-MECA in CHO cell membranes transfected with human Adenosine A3 receptor. The format is functional, cell-based.
The target of test [14] is T3, Adenosine receptor A3 (Homo sapiens). The conditions noted are these: CHO, 1 uM. The source holds these as a separate data set.
Description: Perent inhibition of cAMP-accumulation in CHO cells expressing human Adenosine A3 receptor by IB-MECA at 1 uM.
For test [15], the target named is T6, Adenosine receptor A1 (Rattus norvegicus, UniProt P25099).
T6 sequence (P25099 whole entry): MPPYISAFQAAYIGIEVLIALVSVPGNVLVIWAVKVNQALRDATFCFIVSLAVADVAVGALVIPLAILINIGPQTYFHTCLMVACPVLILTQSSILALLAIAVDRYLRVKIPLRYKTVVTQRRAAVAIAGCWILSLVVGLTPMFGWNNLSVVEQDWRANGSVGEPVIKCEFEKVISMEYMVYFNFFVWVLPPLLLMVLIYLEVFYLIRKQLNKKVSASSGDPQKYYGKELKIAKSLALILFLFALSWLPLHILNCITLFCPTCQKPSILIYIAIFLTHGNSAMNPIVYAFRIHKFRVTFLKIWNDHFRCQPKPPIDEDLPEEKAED
Kind of test: Displacement of [3H]DPCPX from Adenosine A1 receptor of rat brain membranes. It counts as cell membranes, Membrane.

T2 sequence (P29274 whole entry): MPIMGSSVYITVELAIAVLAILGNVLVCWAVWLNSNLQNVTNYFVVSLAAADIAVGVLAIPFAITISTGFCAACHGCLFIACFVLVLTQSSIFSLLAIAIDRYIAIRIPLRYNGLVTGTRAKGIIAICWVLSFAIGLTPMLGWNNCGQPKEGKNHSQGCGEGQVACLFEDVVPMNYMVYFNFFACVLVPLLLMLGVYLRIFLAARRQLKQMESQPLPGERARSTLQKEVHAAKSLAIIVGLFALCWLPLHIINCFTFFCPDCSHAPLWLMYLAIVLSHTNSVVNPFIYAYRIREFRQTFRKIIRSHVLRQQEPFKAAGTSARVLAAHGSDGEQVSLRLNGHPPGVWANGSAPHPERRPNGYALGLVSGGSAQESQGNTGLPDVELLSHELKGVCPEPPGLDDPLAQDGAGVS

Take `Nc1nc2nn(CCc3ccccc3)cc2c2nc(-c3ccco3)nn12`: the pKi in test [1] is 9.00; in [2], 9.51. The values for the inhibition in [3] and in test [4] were 5% and 12%, respectively.

`O=C(Nc1cccc(Cl)c1)Nc1nc2nn(CCCc3ccccc3)cc2c2nc(-c3ccco3)nn12`: the figures for the negative-log Ki (pKi) in [1] and in test [2] were 5.82 and 6.69, respectively. The Ratio was 75 in [5] and greater than 234 in test [7]. In addition, the inhibition in [4] amounted to 20%; in [6], 50%.

For `COc1ccc(NC(=O)Nc2nc3nn(CCCc4ccccc4)cc3c3nc(-c4ccco4)nn23)cc1`, the Ratio in test [8] is 12.6; in test [5], greater than 504; in test [7], 76.4. Also, the pKi was 6.60 in [1] and 5.99 in test [2]. Besides, the figures for the inhibition in test [3] and in test [4] were 56% and 11%, respectively.

Turning to `CCn1cc2c(nc(N)n3nc(-c4ccco4)nc23)n1`, the Ratio in test [8] stood at 0.0014; in [5] it was 0.003; in test [7], 0.03. Moreover, the pKi in test [1] was 8.30; in test [2] it was 8.72. Moreover, the inhibition in test [3] came to 3%; in test [4], 1%.

`CCCn1cc2c(nc(NC(=O)Nc3cccc(Cl)c3)n3nc(-c4ccco4)nc23)n1`: the figures for the pKi in test [1], in test [10] and in test [11] were 7.52, less than 5.00 and 5.91, respectively. For the same molecule, the inhibition in [9] was found to be 87%; in [4] it was 20%. Besides, the pIC50 in test [12] is 8.28.

Consider `CCn1cc2c(nc(NC(=O)Nc3cccc(Cl)c3)n3nc(-c4ccco4)nc23)n1`, for which the pKi is 6.60 in [1] and 6.73 in test [2]. Besides, the inhibition in test [9] is 71%; in test [4] it was 36%. The molecule also had a pIC50 in [13] of 7.82.

`CCCn1cc2c(nc(NC(=O)Nc3ccc(OC)cc3)n3nc(-c4ccco4)nc23)n1`: the inhibition was 89% in [14] and 37% in test [4].

`CCCn1cc2c(nc(N)n3nc(-c4ccco4)nc23)n1`: the Ratio turned out to be 0.016 in test [8], 0.03 in test [5] and 0.22 in [7]. In addition, the pKi is 8.00 in test [1] and 8.59 in test [2]. Further, the pIC50 in test [13] is 7.40. Also, in test [4], the inhibition was 2%.

For the molecule `Nc1nc2nn(CCCc3ccccc3)cc2c2nc(-c3ccco3)nn12`, the results for the Ratio in test [8], in [5] and in [7] were 0.001, 0.0002 and 0.004, respectively. In addition, the pKi in test [1] is 8.52; in test [2], 9.74. In addition, the inhibition in [3] turned out to be 6%; in test [4], 32%.

Consider `O=C(Nc1cccc(Cl)c1)Nc1nc2nn(CCc3ccccc3)cc2c2nc(-c3ccco3)nn12`, for which the Ratio is 19 in [8], 128 in [5] and 79 in test [7]. The figures for the pKi in test [1] and in test [2] were 6.60 and 6.96, respectively. In addition, the inhibition was found to be 62% in [3] and 30% in [4].

Turning to `CCn1cc2c(nc(NC(=O)Nc3ccc(OC)cc3)n3nc(-c4ccco4)nc23)n1`, the inhibition in [9] is 88%; in test [4], 39%. Moreover, the pKi in test [15] and in test [10] was less than 5.00 throughout. The same molecule gave a pIC50 in [12] of 8.19.

For `COc1ccc(NC(=O)Nc2nc3nn(CCc4ccccc4)cc3c3nc(-c4ccco4)nn23)cc1`, the Ratio in [8] was 136; in test [5], 951; in test [7], 872. Moreover, the pKi is 6.70 in [1] and 6.91 in test [2]. Besides, the pIC50 in test [12] is 7.91. The inhibition in [3] amounted to 81%; in test [4], 37%.
